Measured values taken from patent US20220008438A1 (priority 2020, published 2022).

What was measured:
[1] = mechanically ventilated adult patients with moderate-to-severe ARDS, confirmed Covid-19 infection; cited from earlier work
primary HIV-1 isolated = assay: HIV-1 replication in MT2 cell line assays; assay type: cell-based
Protocol: The total destruction of the viral culture was observed from concentrations of 25 μg/ml of TMA's Maslinic acid, while between 5 and 20 μg/ml, a decrease in viability was observed between 57% and 19%.

murine macrophages = conditions: cited from earlier work
HIV-1 protease = HIV-1 protease (Human immunodeficiency virus type 1 group M subtype B, UniProt P04585); conditions: in vitro; cited from earlier work
[2] = in vivo, cited from earlier work

In the case of C[C@@H]1C[C@H]2[C@@H]3CCC4=CC(=O)C=C[C@]4(C)[C@@]3(F)[C@@H](O)C[C@]2(C)[C@@]1(O)C(=O)CO [Dexametasone], the “effectiveness, share of cases” value [1] is listed as 33%.
With CC1(C)CC[C@]2(C(=O)O)CC[C@]3(C)C(=CC[C@@H]4[C@@]5(C)C[C@@H](O)[C@H](O)C(C)(C)[C@@H]5CC[C@]43C)[C@@H]2C1 [Maslinic acid, 2-alfa,3-betadihydroxy-28-carboxiolean-12-eno] the “concentration giving total destruction of the viral culture” value (primary HIV-1 isolated) was ≥ 25 µg/mL, the cytopathic effect (primary HIV-1 isolated; MT2 cell line, 25 μg/ml) was “decrease was detected” and the “level of p24 antigen in the culture supernatant” value (primary HIV-1 isolated; MT2 cell line, 25 μg/ml) was “decrease was detected”. The cytopathic effect (primary HIV-1 isolated; MT2 cell line, 30 μg/ml) was “absence total cytopathic effect”, the p24 antigen (primary HIV-1 isolated; MT2 cell line, 30 μg/ml) was “decrease in p24 antigen” and the “inhibitory effect on replication” value (primary HIV-1 isolated; between 5 and 20 μg/ml, cultures infected with different amounts of HIV-1) was “did not produce any inhibitory effect”. The pro-inflammatory cytokine generation (murine macrophages) was “strong reduction”, the “activity against the enzyme isolated from the HIV-1 protease” value (HIV-1 protease) was “has in vitro activity” and the bioavailability (in vivo) was 60%. For the same compound, the bioavailability compared ([2]; human) was “higher than that of OA” and the “values in the biological fluids” value [2] was “increased in the biological fluids in a dose-dependent manner”.
For CC1(C)CC[C@]2(C(=O)O)CC[C@]3(C)C(=CC[C@@H]4[C@@]5(C)CC[C@H](O)C(C)(C)[C@@H]5CC[C@]43C)[C@@H]2C1 [OA, Oleanolic acid], the “values in the biological fluids” value [2] is given as “increased in the biological fluids in a dose-dependent manner”.
